{"source": "patent US9861703B2", "about": "(Jinan Platinum Pharmatech Co. Ltd., priority 2013, dated 2018)", "key": {"[1]": {"test_system": "7 cell lines (ES-2, K562, PC-3, MCF-7, Hela, H7402, 3-AO)", "assay": "MTT proliferation inhibition, all 7 tumor cell lines (summary in words)", "assay_type": "cell-based", "experimental": "(§1) Human leukemia cell line K562, clear-cell ovarian carcinoma cell line ES-2, human prostate cancer cell line PC-3, human breast cancer cell line MCF-7, cell line Hela, human liver cancer cell line H7402 and human ovarian cancer cell line 3-AO were transferred into a culture flask and were cultured in a medium at 37° C. in a 5% CO2 and saturation humidity. One bottle of cells in logarithmic growth phase was picked out and was blew and beaten to be uniform with a pipette, then took some cell suspension solution to prepare blood counting plate smear to count cells under inverted microscope, and then adjusted the cell number to be 1×10^5/mL by adding some culture medium. Cells were seeded on a 96-well plate on which also drug tests performed. Blank control group, negative control group, positive control group and drug test group were established on the plate while the surrounding wells of the plate were not used (but filled with sterile PBS), wherein the blank control groups were prepared by addition of culture medium 150 μL per well, the negative control groups were prepared by addition of cell suspension solution 100 μL per well and culture medium 50 μL per well, the positive control groups were prepared by addition of cell suspension solution 100 μL per well and positive control drug solution 50 μL per well, the drug test groups were prepared by addition of cell suspension solution 100 μL per well and test compound solution 50 μL per well, and there were 5 different concentrations of drug in the positive control group and the drug test group respectively: 0.01, 0.1, 1, 10, 100 μmol·L^−1, each concentration was established with 3 parallel wells. After the drug was added, the 96-well plate was incubated for 48 h at 37° C. in a CO2 incubator of 5% CO2 and saturation humidity. Upon completion of the incubation, 20 μL MTT solution (concentration was 5 mg/mL) was added to each well and incubated for an additional 4 h, and after the 96-well plate was centrifuged at 2000 rpm for 30 min, medium of each well was suck out carefully and removed and 100 μL DMSO was added instead, followed by vibrating on a tablet shaker for 15 min to re-dissolve formazan crystals completely. OD value of each well was measured at 570 nm wavelength using an enzyme-linked immunosorbent assay reader to calculate cellular proliferation inhibitory ratio of each drug in different concentrations. And half-inhibitory concentration (IC50) was calculated using statistical software SPSS 16.0, wherein the cellular proliferation inhibitory ratio can be calculated as following equation: […]"}, "[2]": {"test_system": "human prostate cancer cell line PC-3", "assay": "MTT proliferation inhibition, PC-3", "assay_type": "cell-based", "details": "48 h", "experimental": "as §1"}, "H22 tumor cells": {"test_system": "H22 tumor cells", "assay": "Activities of compounds in H22 tumor cells bearing Kunming mice models (Example 34)", "details": "for anti-tumor growth activity: FIGS. 11-14; for Number of mice alive: 8 mice; for Tumor growth inhibition (%) / Tumor weight: after two cycles", "quoted_text": "The ascites was extracted from H22 tumour bearing mice with well growth, followed by adding sterile PBS to dilute the ascites to a concentration of 8.5×10^7 cells/mL. 100 uL of the cells solution was suck up by a 1 mL sterile injector to inoculate into right oxter of mice. After 3 days, the mice were weighted and randomized to several groups (almost 8 mice per group, and a bit more in control group). These mice were administrated a predetermined dosage by intravenous or oral gavage with two days off when having administrated for 5 days until two cycles one of which had 7 days. The body weight of mouse was recorded at the beginning and ending of every cycle,\nAfter being administrated for two cycles, the mice were weighted and recorded, then sacrificed by cervical dislocation to get lung, liver and spleen weighted respectively.\nOverall difference was calculated by the function of one-way analysis of variance (One-Way ANOVA) in Origin 7.5 software; and t-test was used for pair-comparison between drug administrated group and blank group, and the inhibitory ratio of drug in each group was calculated based on the following equation: inhibitory ratio (100%)=(mean tumor weight of control group−mean tumor weight of drug administrated group)/mean tumor weight of control group×100."}, "[3]": {"test_system": "clear-cell ovarian carcinoma cell line ES-2", "assay": "MTT proliferation inhibition, ES-2", "assay_type": "cell-based", "details": "for EC50: 48 h", "experimental": "as §1"}, "[4]": {"test_system": "human liver cancer cell line H7402", "assay": "MTT proliferation inhibition, H7402", "assay_type": "cell-based", "details": "48 h", "experimental": "as §1"}, "Aminopeptidase N": {"target": "T1, Aminopeptidase N (Sus scrofa, UniProt P15145)", "T1 construct": "purchased Sigma", "T1 sequence (P15145 1-963)": "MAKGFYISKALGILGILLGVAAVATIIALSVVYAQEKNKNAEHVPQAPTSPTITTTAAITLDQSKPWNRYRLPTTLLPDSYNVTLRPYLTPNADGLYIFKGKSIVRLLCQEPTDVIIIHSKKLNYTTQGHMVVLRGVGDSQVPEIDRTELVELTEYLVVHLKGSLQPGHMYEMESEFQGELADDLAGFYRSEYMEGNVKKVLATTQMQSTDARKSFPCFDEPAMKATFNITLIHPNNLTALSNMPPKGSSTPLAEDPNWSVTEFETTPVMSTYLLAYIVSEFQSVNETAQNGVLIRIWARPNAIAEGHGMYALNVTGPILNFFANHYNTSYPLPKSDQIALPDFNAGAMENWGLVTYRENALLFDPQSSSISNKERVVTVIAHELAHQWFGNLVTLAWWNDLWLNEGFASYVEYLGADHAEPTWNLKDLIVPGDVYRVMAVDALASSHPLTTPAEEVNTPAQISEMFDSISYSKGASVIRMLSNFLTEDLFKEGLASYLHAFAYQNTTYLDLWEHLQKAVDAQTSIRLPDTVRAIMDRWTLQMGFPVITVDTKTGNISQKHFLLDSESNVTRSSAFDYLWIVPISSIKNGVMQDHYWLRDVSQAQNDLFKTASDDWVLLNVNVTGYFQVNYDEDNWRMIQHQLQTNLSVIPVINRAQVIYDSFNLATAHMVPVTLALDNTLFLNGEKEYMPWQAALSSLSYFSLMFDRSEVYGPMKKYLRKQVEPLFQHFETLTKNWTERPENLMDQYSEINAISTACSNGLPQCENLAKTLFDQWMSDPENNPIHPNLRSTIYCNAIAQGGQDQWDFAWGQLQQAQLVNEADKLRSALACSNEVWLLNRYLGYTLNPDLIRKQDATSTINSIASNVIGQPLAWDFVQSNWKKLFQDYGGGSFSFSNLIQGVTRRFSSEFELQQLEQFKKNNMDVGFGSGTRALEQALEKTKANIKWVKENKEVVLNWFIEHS", "assay": "Inhibition activity against enzyme in vitro (aminopeptidase N, L-Leu-p-nitroanilide substrate)", "assay_type": "biochemical", "details": "for IC50: 37° C., 0.5 h, absorbance 405 nm, PBS pH 7.2, read-out: IC50(μM) APN", "experimental": "Aminopeptidase N and L-Leu-p-nitroanilide as substrate were purchased from Sigma cooperation.\nPreparation of Buffer Solution: 12.89 g Na2HPO4.12H2O and 2.18 g NaH2PO4.2H2O were dissolved in a 1000 mL volumetric flask, then the mixture was diluted to 1000 mL with fresh distilled water to obtain 50 mM Phosphate Buffer solution (PBS, pH 7.2), which was kept at room temperature to spare.\nAminopeptidase N was dissolved in the buffer solution to obtain 0.1 IU/mL solution.\nThe substrate was dissolved in DMSO to obtain a […] solution, which was kept in refrigerator to spare.\nThe aminopeptidase N solution 10 μL, the substrate solution 5 μL and compound with different concentration 40 μL were added into a 96-well cell plate, and then adjusted to 200 μL with phosphate buffer saline solution (pH 7.2). […] And the substrate solution 5 μL of blank group was adjusted to 200 μL with buffer solution. The mixture was incubated at 37° C. for 0.5 h, and absorbance was then determined at 405 nm wavelength Inhibitory ratio can be calculated as follows: […]\nAccording to concentration of compound and corresponding inhibitory ratio, the IC50 value was calculated by using a fitting curve of Origin 7.5 software."}, "[5]": {"details": "intravenous injection, 50 mg/kg/d (0.1 mmol/kg/d)"}, "[6]": {"details": "oral gavage, 120 mg/kg/d ([…]) per dosage table, group printed *BC-01(50)"}, "[7]": {"details": "intravenous injection, 55 mg/kg/d (0.1 mmol/kg/d) (by order of dosage table)"}, "[8]": {"details": "intravenous injection, 79 mg/kg/d (0.15 mmol/kg/d) (by order of dosage table)"}, "[9]": {"details": "oral gavage, 130 mg/kg/d ([…]) per dosage table, group printed *BC-02(70)"}}, "data": [{"smiles": "CC(C)C[C@H](NC(=O)[C@@H](O)[C@H](N)Cc1ccccc1)C(=O)OCn1cc(F)c(=O)[nH]c1=O.Cl", "note": "[BC-01, (S)-(5-fluoro-2,4-dioxo-3,4-dihydropyrimidinyl-1(2H))methyl-2-((2S,3R)-3-(amino)-2-hydroxy-4-phenylbutyryl)-4-methylpentanoate hydrochloride]", "values": [{"measurement": "anti-proliferation effect against all the tumor cells", "setting": "[1]", "value": "obvious anti-proliferation effect"}, {"measurement": "EC50", "setting": "[2]", "value": 10.7, "unit": "µM"}, {"measurement": "anti-tumor growth activity", "setting": "H22 tumor cells", "value": "excellent anti-tumor growth activity"}, {"measurement": "Number of mice alive", "setting": "H22 tumor cells; intravenous injection, 50 mg/kg/d (0.1 mmol/kg/d), two cycles", "value": 8}, {"measurement": "Tumor growth inhibition (%)", "setting": "H22 tumor cells; [5]", "value": 84.38, "unit": "%"}, {"measurement": "Tumor weight", "setting": "H22 tumor cells; [5]", "value": "0.09 ± 0.14", "unit": "g"}, {"measurement": "Body weight(g) Beginning", "setting": "H22 tumor cells; [5]", "value": "31.52 ± 3.63", "unit": "g"}, {"measurement": "Body weight(g) Ending", "setting": "H22 tumor cells; [5]", "value": "31.78 ± 5.76", "unit": "g"}, {"measurement": "Number of mice alive", "setting": "H22 tumor cells; [6]", "value": 7}, {"measurement": "Tumor growth inhibition (%)", "setting": "H22 tumor cells; [6]", "value": 79.52, "unit": "%"}, {"measurement": "Tumor weight", "setting": "H22 tumor cells; [6]", "value": "0.12 ± 0.16", "unit": "g"}, {"measurement": "Body weight(g) Beginning", "setting": "H22 tumor cells; [6]", "value": "27.87 ± 2.55", "unit": "g"}, {"measurement": "Body weight(g) Ending", "setting": "H22 tumor cells; [6]", "value": "29.50 ± 2.15", "unit": "g"}, {"measurement": "EC50", "setting": "[3]", "value": 2.53, "unit": "µM"}, {"measurement": "EC50", "setting": "[4]", "value": 1.86, "unit": "µM"}, {"measurement": "inhibitory activity against aminopeptidase N compared with positive control ubenimex", "setting": "Aminopeptidase N", "value": "comparable activity with ubenimex"}, {"measurement": "IC50", "setting": "Aminopeptidase N", "value": 6.98, "unit": "µM"}]}, {"smiles": "CC(C)C[C@H](NC(=O)[C@@H](O)[C@H](N)Cc1ccccc1)C(=O)NCC(=O)OCn1cc(F)c(=O)[nH]c1=O.Cl", "note": "[BC-02, (5-fluoro-2,4-dioxo-3,4-dihydropyrimidinyl-1(2H))methyl-2-((S)-2-((2S,3R)-3-amino-2-hydroxy-4-phenylbutanamido)-4-methylpentanamido)acetate hydrochloride]", "values": [{"measurement": "anti-proliferation effect against all the tumor cells", "setting": "[1]", "value": "obvious anti-proliferation effect"}, {"measurement": "EC50", "setting": "[2]", "value": 3.45, "unit": "µM"}, {"measurement": "tumor appearance until the end of the experiment", "setting": "H22 tumor cells; 0.15 mmol/kg/d, intravenous", "value": "no tumor appeared"}, {"measurement": "anti-tumor growth activity", "setting": "H22 tumor cells", "value": "excellent anti-tumor growth activity"}, {"measurement": "Number of mice alive", "setting": "H22 tumor cells; [7]", "value": 7}, {"measurement": "Tumor growth inhibition (%)", "setting": "H22 tumor cells; [7]", "value": 89.52, "unit": "%"}, {"measurement": "Tumor weight", "setting": "H22 tumor cells; [7]", "value": "0.06 ± 0.11", "unit": "g"}, {"measurement": "Body weight(g) Beginning", "setting": "H22 tumor cells; [7]", "value": "25.67 ± 2.62", "unit": "g"}, {"measurement": "Body weight(g) Ending", "setting": "H22 tumor cells; [7]", "value": "28.35 ± 3.71", "unit": "g"}, {"measurement": "Number of mice alive", "setting": "H22 tumor cells; [8]", "value": 7}, {"measurement": "Tumor growth inhibition (%)", "setting": "H22 tumor cells; [8]", "value": 100, "unit": "%"}, {"measurement": "Tumor weight", "setting": "H22 tumor cells; [8]", "value": "0.0 ± 0.0", "unit": "g"}, {"measurement": "Body weight(g) Beginning", "setting": "H22 tumor cells; [8]", "value": "30.32 ± 4.42", "unit": "g"}, {"measurement": "Body weight(g) Ending", "setting": "H22 tumor cells; [8]", "value": "31.13 ± 3.55", "unit": "g"}, {"measurement": "Number of mice alive", "setting": "H22 tumor cells; [9]", "value": 7}, {"measurement": "Tumor growth inhibition (%)", "setting": "H22 tumor cells; [9]", "value": 89.76, "unit": "%"}, {"measurement": "Tumor weight", "setting": "H22 tumor cells; [9]", "value": "0.06 ± 0.11", "unit": "g"}, {"measurement": "Body weight(g) Beginning", "setting": "H22 tumor cells; [9]", "value": "27.98 ± 3.73", "unit": "g"}, {"measurement": "Body weight(g) Ending", "setting": "H22 tumor cells; [9]", "value": "27.49 ± 4.94", "unit": "g"}, {"measurement": "proliferation inhibition activity against ES-2", "setting": "[3]", "value": "great proliferation inhibition activity"}, {"measurement": "EC50", "setting": "[3]", "value": 1.34, "unit": "µM"}, {"measurement": "EC50", "setting": "[4]", "value": 11, "unit": "µM"}, {"measurement": "inhibitory activity against aminopeptidase N compared with positive control ubenimex", "setting": "Aminopeptidase N", "value": "much more potent than the positive control drug ubenimex"}, {"measurement": "IC50", "setting": "Aminopeptidase N", "value": 0.38, "unit": "µM"}]}]}
